In patent US10329270B2, “Heteroaryl compounds as BTK inhibitors and uses thereof” (Merck Patent GmbH, priority 2013, dated 2019):

Legend:
full-length human BTK = biological target: T1, full-length human BTK (Homo sapiens, UniProt Q06187); experiment: Assay A: BTK IC50 Enzyme Assay (microfluidic off-chip mobility shift kinase assay); type: biochemical; conditions: full-length human BTK, kinKDR peptide substrate, incubated 90 min at 27 C; read-out: Assay A (Time Dependent BTK Enzyme Assay IC50)
T1 construct: 2.5× stocks of full-length human BTK (08-080); purchased CarnaBio USA, Inc., Natick, Mass; 08-080
Procedure, shortened: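 Off-chip microfluidic mobility shift assay with full-length human BTK; phosphorylated and unphosphorylated peptide substrate were separated by charge/mass on a LabChip 3000.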

BTK in human whole blood = biological target: T2, BTK in human whole blood (Homo sapiens, UniProt Q06187); experiment: Assay C: Time Dependent Human Whole Blood IC50 Assay; type: cell-based; conditions: read-out: Assay C (Time Dependent Human Whole Blood BTK Enzyme Assay IC50)
T2 construct: endogenous in cells; host or cells: human whole blood
Procedure: Assay C: Time Dependent Human Whole Blood IC50 Assay
Compounds described by embodiments of the present invention were assayed using a human whole blood assay. The data from the same is recorded in Table 2 within the column labeled: “Time Dependent Human Whole Blood BTK Enzyme Assay IC50”.

PBMC = experiment: Assay B: Time Dependent PMBC IC50 Assay; type: cell-based
Procedure: Assay B: Time Dependent PMBC IC50 Assay
Compounds described by embodiments of the present invention were assayed using a time dependent PMBC assay. The data from the same is recorded in Table 2 within the column labeled: “Time Dependent PBMC Assay IC50.” These IC50 values are reported in ranges wherein: I<1 uM and II>1 uM.

T2 sequence (Q06187 whole entry): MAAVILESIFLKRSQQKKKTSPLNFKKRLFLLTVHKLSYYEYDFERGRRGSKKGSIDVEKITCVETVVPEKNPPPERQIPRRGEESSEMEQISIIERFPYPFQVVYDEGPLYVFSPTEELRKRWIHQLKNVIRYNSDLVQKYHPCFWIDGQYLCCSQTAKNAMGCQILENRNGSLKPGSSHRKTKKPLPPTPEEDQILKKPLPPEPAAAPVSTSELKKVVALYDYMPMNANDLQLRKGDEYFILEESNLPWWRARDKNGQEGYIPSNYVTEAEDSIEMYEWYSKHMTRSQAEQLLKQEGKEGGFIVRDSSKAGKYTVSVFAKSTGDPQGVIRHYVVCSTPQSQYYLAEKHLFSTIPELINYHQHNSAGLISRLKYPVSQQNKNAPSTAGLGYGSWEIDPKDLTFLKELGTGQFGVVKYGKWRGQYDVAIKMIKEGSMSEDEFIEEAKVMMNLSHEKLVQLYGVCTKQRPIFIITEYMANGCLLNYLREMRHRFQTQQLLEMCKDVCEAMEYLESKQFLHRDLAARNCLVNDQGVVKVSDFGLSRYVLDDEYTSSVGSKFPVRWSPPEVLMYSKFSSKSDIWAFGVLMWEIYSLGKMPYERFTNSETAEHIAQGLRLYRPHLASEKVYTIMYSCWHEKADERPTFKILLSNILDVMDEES
T1 sequence (Q06187 whole entry): as above

| Compound | IC50 (full-length human BTK) [nM] | IC50 (BTK in human whole blood) [nM] | IC50 (PBMC) [nM] |
| --- | --- | --- | --- |
| C=CC(=O)N1C[C@@H]2C[C@H]1CN2c1ccc(C(N)=O)c(Nc2ccc(CCN3CCCC3)cc2)n1 [Compound 9, 6-((1S,4S)-5-Acryloyl-2,5-diaza-bicyclo[2.2.1]hept-2-yl)-2-[4-(2-pyrrolidin-1-yl-ethyl)-phenylamino]-nicotinamide] | < 100 | < 100 | < 100 |
| C=CC(=O)N[C@H]1CCN(c2ccc(C(N)=O)c(Nc3ccc(N4C[C@@H](C)O[C@@H](C)C4)nc3)n2)C1 [Compound 37, 6-((S)-3-Acryloylamino-pyrrolidin-1-yl)-2-[6-(cis-2,6-dimethyl-morpholin-4-yl)-pyridin-3-ylamino]-nicotinamide] | < 100 | 100 to 1000 | < 100 |
| C=CC(=O)N1C2C=C(c3ccc(C(N)=O)c(Oc4ccc(Oc5ccccc5)cc4)n3)CC1CC2 (centres unmarked) [Compound 65, 6-(8-Acryloyl-8-aza-bicyclo[3.2.1]oct-2-en-3-yl)-2-(4-phenoxy-phenoxy)-nicotinamide] | < 100 | 100 to 1000 | < 100 |
| C=CC(=O)N1CC=C(c2ccc(C(N)=O)c(Oc3ccc(Oc4ccccc4)cc3)n2)CC1 [Compound 69, 1′-acryloyl-6-(4-phenoxyphenoxy)-1′,2′,3′,6′-tetrahydro-[2,4′-bipyridine]-5-carboxamide] | < 100 | 100 to 1000 | < 100 |
| C=CC(=O)NC1CN(c2ncc(C(N)=O)c(Oc3ccc(Oc4ccccc4)cc3)n2)C1 [Compound 174, 2-(3-Acryloylamino-azetidin-1-yl)-4-(4-phenoxy-phenoxy)-pyrimidine-5-carboxylic acid amide] | < 100 | 100 to 1000 | < 100 |
| N#CN[C@@H]1CCCN(c2ccc(C(N)=O)c(Nc3ccc(C(=O)N4CCOCC4)cc3)n2)C1 [Compound 227, (R)-3-Cyanoamino-6′-[4-(morpholine-4-carbonyl)-phenylamino]-3,4,5,6-tetrahydro-2H-[1,2′]bipyridinyl-5′-carboxylic acid amide] | 100 to 1000 |  | > 5000 |
| N#CN1CCCC(c2cnc(Oc3ccc(Oc4ccccc4)cc3)c(C(N)=O)c2)C1 (centres unmarked) [Compound 236, 1′-Cyano-6-(4-phenoxy-phenoxy)-1′,2′,3′,4′,5′,6′-hexahydro-[3,3′]bipyridinyl-5-carboxylic acid amide] | < 100 |  | 100 to 1000 |
| N#CN1CCC[C@H](c2cnc(Oc3ccc(Oc4ccccc4)cc3)c(C(N)=O)c2)C1 [Compound 241, (R)-5-(1-cyanopiperidin-3-yl)-2-(4-phenoxyphenoxy)nicotinamide] | < 100 |  | 100 to 1000 |

Now from value to molecule, other results behind:

| IC50 (full-length human BTK) [nM] | IC50 (BTK in human whole blood) [nM] | Compound | IC50 (PBMC) [nM] |
| --- | --- | --- | --- |
| < 100 | < 100 | C=CC(=O)N[C@H]1CCN(c2nc(Nc3ccc(C(=O)NC(C)(C)C)cc3)c(F)cc2C(N)=O)C1 [Compound 3, (S)-2-(3-acrylamidopyrrolidin-1-yl)-6-((4-(tert-butylcarbamoyl)phenyl)amino)-5-fluoronicotinamide] | < 100 |
| < 100 | 100 to 1000 | C=CC(=O)N[C@H]1CCN(c2ccc(C(N)=O)c(Nc3ccc(C(=O)N4CCN(C)CC4)cc3)n2)C1 [Compound 11, (S)-6-(3-acrylamidopyrrolidin-1-yl)-2-((4-(4-methylpiperazine-1 carbonyl)phenyl)amino)nicotinamide] | < 100 |
| < 100 | 100 to 1000 | C=CC(=O)N[C@H]1CCN(c2ccc(C(N)=O)c(Nc3ccc(OC)cc3)n2)C1 [Compound 45, 6-((S)-3-Acryloylamino-pyrrolidin-1-yl)-2-(4-methoxy-phenylamino)-nicotinamide] |  |
| < 100 | 1000 to 5000 | C=CC(=O)N[C@H]1CCN(c2ccc(C(N)=O)c(Nc3ccc(F)nc3)n2)C1 [Compound 46, 6-((S)-3-Acryloylamino-pyrrolidin-1-yl)-2-(6-fluoro-pyridin-3-ylamino)-nicotinamide] | < 100 |
| < 100 | < 100 | C=CC(=O)N[C@H]1CCN(c2ncc(C(N)=O)c(Nc3ccc(C(=O)NC(C)(C)C)cc3)n2)C1 [Compound 139, (S)-2-(3-acrylamidopyrrolidin-1-yl)-4-((4-(tert-butylcarbamoyl)phenyl)amino)pyrimidine-5-carboxamide] | < 100 |
| < 100 | 100 to 1000 | C=CC(=O)N[C@H]1CCN(c2nc(Nc3ccc(N4CCC(F)(F)CC4)cc3)c(C(N)=O)cc2F)C1 [Compound 180, 6-((S)-3-Acryloylamino-pyrrolidin-1-yl)-2-[4-(4,4-difluoro-piperidin-1-yl)-phenylamino]-5-fluoro-nicotinamide] | < 100 |
